The values below come from patent US8758810B2, “Liposome compositions” (priority 2005, dated 2014).

The test system of this series is AsPC-1 cells. Nature of the series: Cytotoxicity test for oxaliplatin (WST-1 kit). It counts as cell-based. The following applies: l-OHP solutions 48 hours. Here is the method:
An oxaliplatin (l-OHP) solution was prepared by dissolving oxaliplatin in a 9% sucrose solution (sucrose/distilled water) at a concentration of 8 mg/ml. The cell viability was determined using a commercially available cytotoxicity assay kit (WST-1 kit, Wako Pure Chemical Industries, Ltd., Japan).
AsPC-1 cells (provided by Dr. Hironobu Yanagie of Research Center for Advanced Science and Technology, the University of Tokyo, Japan) cultured in RPMI 1640 medium supplemented with 10% FCS (fetal calf serum; SIGMA, USA) were treated with concentrations of l-OHP solutions [200×(1/2)^(0-10) nM] at 37° C. in 5% CO2 for 48 hours. Then, the medium was removed and a substrate (WST-1, Cell Counting Kit, Dojindo Laboratories, Japan) was added to the cells which were incubated at 37° C. in 5% CO2 for 2 hours to develop the colored product. The developed color was measured at an absorbance of 450 nm (reference wavelength: 620 nm) on an Immuno Mini NJ-2300 (Cosmo Bio Co., Ltd., Japan).
On the technique in general: Formazan colour is commonly taken as a measure of viable cells.

Regarding `O=C1[O][Pt]2([NH]C3CCCCC3[NH]2)[O]C1=O` [l-OHP, cis-[(1R, 2R)-1,2-cyclohexanediamine-N,N′][oxalato(2)-O,O′]platinum], the “cytotoxicity LD50” value is greater than 8 µg/mL.
